US20090253669A1, “Substituted Sulfonamide Compounds” (GRUENENTHAL GmbH, priority 2008, published 2009)
Where two headings read alike, the source gives them in different places.

Legend:
[1] = molecular target: T1, human B1R receptor (hB1R) (Homo sapiens, UniProt P46663); experiment: FLIPR Ca2+ assay on hB1R-transfected CHO K1 cells, antagonistic action; assay type: cell-based
T1 construct: host or cells: CHO K1 cells
T1 sequence (P46663 1-353): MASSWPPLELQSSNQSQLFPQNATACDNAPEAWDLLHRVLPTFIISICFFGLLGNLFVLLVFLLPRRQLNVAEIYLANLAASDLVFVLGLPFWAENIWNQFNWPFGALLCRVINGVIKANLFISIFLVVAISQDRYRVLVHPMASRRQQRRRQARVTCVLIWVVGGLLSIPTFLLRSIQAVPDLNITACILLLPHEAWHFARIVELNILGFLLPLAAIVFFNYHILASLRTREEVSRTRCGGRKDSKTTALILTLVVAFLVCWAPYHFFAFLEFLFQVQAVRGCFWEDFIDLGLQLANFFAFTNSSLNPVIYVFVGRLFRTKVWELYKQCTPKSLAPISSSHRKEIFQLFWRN

[2] = molecular target: T2, B1R receptor of the rat (rB1R) (Rattus norvegicus, UniProt P97583); experiment: FLIPR Ca2+ assay on rB1R-transfected CHO K1 cells, antagonistic action; assay type: cell-based
T2 construct: host or cells: CHO K1 cells
T2 sequence (P97583 1-337): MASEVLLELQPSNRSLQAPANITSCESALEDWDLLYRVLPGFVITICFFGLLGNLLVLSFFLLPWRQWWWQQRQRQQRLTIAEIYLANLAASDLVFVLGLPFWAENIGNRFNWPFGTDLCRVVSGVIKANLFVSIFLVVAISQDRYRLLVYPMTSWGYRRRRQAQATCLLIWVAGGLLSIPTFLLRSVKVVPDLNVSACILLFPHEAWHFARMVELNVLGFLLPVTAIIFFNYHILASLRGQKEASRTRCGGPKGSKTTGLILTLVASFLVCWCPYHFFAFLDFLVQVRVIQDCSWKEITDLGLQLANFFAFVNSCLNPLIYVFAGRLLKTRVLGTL

[3] = CHO-K1, 10 μM test substance, agonist Lys-Des-Arg9-bradykinin 0.5 nM, % of maximum achievable inhibition, read-out: hB1R [10 μM] % inhibition
[4] = CHO-K1, 10 μM test substance, agonist Des-Arg9-bradykinin 100 nM, % of maximum achievable inhibition, read-out: rB1R [10 μM] % inhibition

Row | Structure (SMILES) | inhibition at 10 µM [1, 3] | inhibition at 10 µM [2, 4] | inhibition at 10 µM ([1]; CHO-K1, read-out: hB1R [10 μM] % inhibition) | inhibition at 10 µM ([2]; CHO-K1, read-out: rB1R [10 μM] % inhibition)
1 | CN1CCN(C2(c3ccc(F)cc3)CCN(C(=O)COCC3CCc4ccccc4N3S(=O)(=O)c3ccc(Cl)c(Cl)c3)CC2)CC1 (centres unmarked) [Compound 126, 2-((1-(3,4-dichlorophenylsulfonyl)-1,2,3,4-tetrahydroquinolin-2-yl)methoxy)-1-(4-(4-fluorophenyl)-4-(4-methylpiperazin-1-yl)piperidin-1-yl)ethanone] | 87% | 55% | – | –
2 | COc1cc(C)c(S(=O)(=O)N2CCCCC2COCC(=O)N2CCC(CCc3ccccc3)(N3CCN(C)CC3)CC2)c(C)c1 (centres unmarked) [Compound 77, 2-((1-(4-methoxy-2,6-dimethylphenylsulfonyl)piperidin-2-yl)methoxy)-1-(4-(4-methylpiperazin-1-yl)-4-phenethylpiperidin-1-yl)ethanone] | 100% | 99% | – | –
3 | Cc1ccccc1CC1(N(C)C)CCC(NC(=O)COCCN(C)S(=O)(=O)c2ccc(Cl)cc2Cl)CC1 (centres unmarked) [Compound 30, 2-(2-(2,4-dichloro-N-methylphenylsulfonamido)ethoxy)-N-(4-(dimethylamino)-4-(2-methylbenzyl)cyclohexyl)acetamide] | 63% | 39% | – | –
4 | COc1cc(C)c(S(=O)(=O)N2CCCCC2COCC(=O)N(C)CCCC2CCC(c3ccccc3)(N(C)C)CC2)c(C)c1 (centres unmarked) [Compound 203, N-(3-(4-(dimethylamino)-4-phenylcyclohexyl)propyl)-2-((1-(4-methoxy-2,6-dimethylphenylsulfonyl)piperidin-2-yl)methoxy)-N-methylacetamide] | 99% | 98% | – | –
5 | COc1cc(C)c(S(=O)(=O)N2CCCCC2COCC(=O)N2CCC(c3ccccc3)(N3CCN(C)CC3)CC2)c(C)c1 (centres unmarked) [Compound 49, 2-((1-(4-methoxy-2,6-dimethylphenylsulfonyl)piperidin-2-yl)methoxy)-1-(4-(4-methylpiperazin-1-yl)-4-phenylpiperidin-1-yl)ethanone] | 103% | 100% | – | –
6 | CN(CCC1CCC(Cc2ccccc2)(N2CCCC2)CC1)C(=O)CC(NS(=O)(=O)c1ccc2ccccc2c1)c1ccccc1 (centres unmarked) [Compound 56, N-(2-(4-benzyl-4-(pyrrolidin-1-yl)cyclohexyl)ethyl)-N-methyl-3-(naphthalene-2-sulfonamido)-3-phenylpropanamide] | 101% | 100% | – | –
7 | COc1cc(C)c(S(=O)(=O)N(C)CCOCC(=O)N(C)CC2CCC(c3ccccc3)(N3CCCC3)CC2)c(C)c1 (centres unmarked) [Compound 35, 2-(2-(4-methoxy-N,2,6-trimethylphenylsulfonamido)ethoxy)-N-methyl-N-((4-phenyl-4-(pyrrolidin-1-yl)cyclohexyl)methyl)acetamide] | 102% | 101% | – | –
8 | CN(CCC1CCC(Cc2ccccc2)(N(C)C)CC1)C(=O)COCC1CCc2ccccc2N1S(=O)(=O)c1ccc(Cl)c(Cl)c1 (centres unmarked) [Compound 61, N-(2-(4-benzyl-4-(dimethylamino)cyclohexyl)ethyl)-2-((1-(3,4-dichlorophenylsulfonyl)-1,2,3,4-tetrahydroquinolin-2-yl)methoxy)-N-methylacetamide] | 49% | 100% | – | –
9 | CN1CCN(C2(c3cccc(F)c3)CCN(C(=O)COCC3CCCCN3S(=O)(=O)c3ccccc3C(F)(F)F)CC2)CC1 (centres unmarked) [Compound 225, 1-(4-(3-Fluorophenyl)-4-(4-methylpiperazin-1-yl)piperidin-1-yl)-2-((1-(2-(trifluoromethyl)phenylsulfonyl)piperidin-2-yl)methoxy)ethanone] | – | – | 100% | 101%
10 | Cc1cc(S(=O)(=O)N2CCCCC2CCC(=O)N(C)CCC2CCC(CCc3ccccc3)(N(C)C)CC2)c(C)cc1Cl (centres unmarked) [Compound 132, 3-(1-(4-chloro-2,5-dimethylphenylsulfonyl)piperidin-2-yl)-N-(2-(4-(dimethylamino)-4-phenethylcyclohexyl)ethyl)-N-methylpropanamide] | 103% | 43% | – | –
